# Measured values taken from article PMC11466185, “Mechanisms and efficacy of small molecule latency-promoting agents to inhibit HIV reactivation ex vivo” (JCI Insight, 2024).
# Values joined by “and” are separate entries in the source; they are usually repeats but may differ in a detail not shown here. Identical values can stand only once.
# Legend:
# [1] = tested on: HIV transcripts (TAR, LLTR, Pol, PolyA, TatRev); assay: Cell-associated HIV transcripts (RT-ddPCR) 6 days after anti-CD3/CD28 activation of PBMCs from ART-suppressed PWH; type: cell-based; details: DMSO+CD3/28 = 1, Fig 4B, C and D
# Protocol: (§1) Next, we evaluated the ability of the candidate LPAs to sustain the inhibitory effects during a prolonged ex vivo culture. To this end, PBMCs were cultured in the presence of individual drugs in DMSO or in DMSO alone as control, activated (anti-CD3/CD28), and harvested after 6 days. […] However, we decided to test the drug on day 6 because extra cells were available from some study participants.
# Each drug was tested in PBMCs from at least 6 ART-suppressed study participants (except for KRIBB11, n = 5). PBMCs were aliquoted into wells at 6 × 10^6 cells/well. After activation, the cells were cultured with antiretrovirals in the presence of individual drugs in DMSO or DMSO alone as control. All conditions were tested in the presence of CD3/28 T cell–activating beads, except for the unactivated DMSO condition. After 6 days, total cellular RNA was extracted, and the progression through different stages of HIV transcription was quantified by measuring the levels of initiated (TAR), 5′ elongated (LLTR), midtranscribed/unspliced (Pol), completed (PolyA), and multiply spliced (TatRev) HIV transcripts. (A) The levels of all HIV transcripts were normalized to 1 μg of total cellular RNA and expressed as a percentage of the activated DMSO control (% of activated DMSO). Medians are shown as well as the individual values per study participant in different colors. (B–D) The effect of each drug on HIV transcriptional progression after activation was analyzed by the ratio of one HIV transcript to another. Ratios are independent of HIV infection frequency or normalization to cell numbers. Shown are the proportion of (B) all HIV transcripts that are elongated (LLTR/TAR), (C) elongated HIV transcripts that are completed (PolyA/LLTR), and (D) completed transcripts that are multiply spliced (TatRev/PolyA). Medians and IQR are presented, along with the individual values per study participant in different colors. P values were calculated using Wilcoxon’s signed-rank test: *P < 0.05.
# PBMCs were isolated from fresh venous blood from 16 ART-suppressed HIV-infected study participants using Ficoll density gradient centrifugation. The cells were seeded at 6 × 10^6 cells/well and cultured with antiretrovirals (nevirapine and indinavir) to prevent new infection. On the next day, PBMCs were activated with anti-CD3/CD28–coated beads (Invitrogen) in the presence of 20 U/mL IL-2 and individual drugs in DMSO or DMSO alone as a control. Since we were limited in the PBMC yield per study participant, different study participants were used for different experiments (such as the initial screen, dose response, different time points, and studies in activated vs. unstimulated cells). In addition, the yields of PBMCs were sometimes insufficient to test all drugs for a given question or experiment.
# (§2) For quantification of cell-associated HIV transcripts, PBMCs were harvested either after 24 hours or after 6 days. The cell viabilities were measured by trypan blue staining; then the cells were pelleted by centrifuging at 300g for 6 minutes and stored at –80°C. For quantification of virion-associated HIV RNA, cell culture supernatant was collected from 6 × 10^6 PBMCs that were treated and activated for 6 days as described above. Residual cells and cellular debris were subsequently removed from the supernatant by differential centrifugation (300g for 6 minutes, then 20,000g for 10 minutes), and the supernatant was stored at –80°C.
# Total cellular DNA and RNA were extracted in parallel using Trireagent (Molecular Research Center) according to the manufacturer’s instructions, except for study participants 2147 and 2461 (Figure 4), for whom DNA and RNA were extracted using the QIAGEN AllPrep DNA/RNA/miRNA Universal Kit with on-column DNase I treatment of the RNA and the manufacturer’s modification to enhance recovery of short transcripts.
# PBMCs [2] = type: cell-based, human; details: 25μM; 6 days after αCD3/28 activation; each row one participant
# Protocol: as §1, §2
# A) After six days, the viability was measured by trypan blue staining and then normalized to the levels of the activated DMSO (% of activated DMSO). Bars indicate medians and different colors indicate individual study participants. B-F) Each drug was tested in PBMCs from at least six ART-suppressed study participants (except for KRIBB11, n=5) and the PBMCs were aliquoted into wells at 6x10^6 cells/well. After activation, the cells were cultured with antiretrovirals in the presence of individual drugs in DMSO or DMSO alone as control. After six days, total RNA was extracted and the progression through different stages of HIV transcription was (1 picture or pasted object on this page, not shown here)
# PBMCs [3] = assay: Total number of live cells (proliferation) by trypan blue staining at day 6; type: cell-based, human; details: day 6; Figure 6A
# Protocol: Some of our candidate LPAs can block the effects of T cell activation, which could affect T cell proliferation. Therefore, we evaluated the extent to which variations in the level of infected cells may contribute to reductions in different HIV RNA transcripts. We measured the total number of viable cells (as a measure of proliferation) and the conserved U3-U5 LTR HIV DNA region (as a measure of total infection frequency) at day 6.
# (A) After 6 days, the total number of live cells was measured by trypan blue staining and then normalized to the levels of the activated DMSO (% of activated DMSO). All conditions were tested in the presence of CD3^+/CD28^+ T cell–activating beads, except for the unactivated DMSO condition. Bars indicate medians, and different colors indicate individual study participants. Comparisons were performed using Wilcoxon’s signed-rank test. (B) Total cellular DNA was extracted, and the levels of U3-U5 HIV DNA were measured to quantify infection frequency at 6 days. HIV DNA levels were normalized to copies per 10^6 cells using the input of cellular DNA (assuming 1 μg of total DNA corresponds to 160,000 cells) and then normalized to the activated DMSO control (% of activated DMSO). Bars indicate medians, and different colors indicate individual study participants.
smiles,measurement,setting,value
COc1ccc(-c2cc(=O)c3c(O)cc(O)c(-c4cc(-c5cc(=O)c6c(O)cc(O)cc6o5)ccc4OC)c3o2)cc1 [isoginkgetin],LLTR/TAR,[1]; participant 150b,0.8798
same,PolyA/LLTR,[1]; participant 150b,1.092
same,TatRev/PolyA,[1]; participant 150b,1.01
same,LLTR/TAR,[1]; participant 1379,1.373
same,PolyA/LLTR,[1]; participant 1379,0.4663
same,LLTR/TAR,[1]; participant 2027,0.7253
same,PolyA/LLTR,[1]; participant 2027,0.8811
same,LLTR/TAR,[1]; participant 2147a,0.06726
same,PolyA/LLTR,[1]; participant 2147a,1.437
same,TatRev/PolyA,[1]; participant 2147a,0.8892
same,LLTR/TAR,[1]; participant 2161,0.6564
same,PolyA/LLTR,[1]; participant 2161,0.57
same,LLTR/TAR,[1]; participant 2256,1.751
same,PolyA/LLTR,[1]; participant 2256,0.07578
same,LLTR/TAR,[1]; participant 2461,1.166
same,PolyA/LLTR,[1]; participant 2461,0.2875
same,LLTR/TAR,[1]; participant 2747,0
same,LLTR/TAR,[1]; participant 5557,0.8133
same,PolyA/LLTR,[1]; participant 5557,0.9591
same,TatRev/PolyA,[1]; participant 5557,0.5795
same,Cell viability (DMSO αCD3/28 = 100),PBMCs [2],120.3 and 106.36 and 93.99 and 112.22 and 91.65 and 74.9 and 87.5 and 124.6
same,Total live cell numbers (proliferation) compared with activated DMSO (in words),PBMCs [3],significantly lower
